From the supplement of paper PMC10307832

Columns and labels:
Assay in all cases: relative viability (nuclei count vs DMSO), 5 days (fraction); higher = more cells survive
[1] = compound: CN(C)C(=N)NC(=N)N [Metformin] + Nc1nc2[nH]cc(CCc3ccc(C(=O)N[C@@H](CCC(=O)O)C(=O)O)cc3)c2c(=O)[nH]1 [Pemetrexed] (partner 0.2 µM)
Outline: (§1)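 Medians of duplicate plates are given as relative viability. That measure is the nuclei count in treated wells divided by the count in vehicle wells. Counts were taken on 4× images of lung cancer cell lines in 1536-well plates, 5 days after pin-tool dosing the day after seeding with one drug alone or a fixed anchor-drug dose plus five library-drug doses (not always all listed) in √10 steps.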

[2] = compound: CN(C)C(=N)NC(=N)N [Metformin] + CCNC(=O)c1noc(-c2cc(C(C)C)c(O)cc2O)c1-c1ccc(CN2CCOCC2)cc1 [Luminespib] (partner 0.01 µM)
Outline: as §1

[3] = compound: CN(C)C(=N)NC(=N)N [Metformin] + C[C@@H](Oc1cc(-c2cnn(C3CCNCC3)c2)cnc1N)c1c(Cl)ccc(F)c1Cl [Crizotinib] (partner 1 µM)
Outline: as §1

[4] = compound: N#CC1(c2ccc(NC(=O)c3cccnc3NCc3ccncc3)cc2)CCCC1 [Apatinib] + COc1cccc2cc(-c3nc([C@H]4CC[C@H](C(=O)O)CC4)n4ncnc(N)c34)[nH]c12 [OSI-027] (partner 0.5 µM)
Outline: as §1

Row | Cell Line | relative viability ([1]; first compound 10 µM) | relative viability ([1]; first compound 31.62 µM) | relative viability ([1]; first compound 100 µM) | relative viability ([1]; first compound 316.23 µM) | relative viability ([1]; first compound 1000 µM) | relative viability ([2]; first compound 10 µM) | relative viability ([2]; first compound 31.62 µM) | relative viability ([2]; first compound 100 µM) | relative viability ([2]; first compound 316.23 µM) | relative viability ([2]; first compound 1000 µM) | relative viability ([3]; first compound 10 µM) | relative viability ([3]; first compound 31.62 µM) | relative viability ([3]; first compound 100 µM) | relative viability ([3]; first compound 316.23 µM) | relative viability ([3]; first compound 1000 µM) | relative viability ([4]; first compound 0.08 µM) | relative viability ([4]; first compound 0.253 µM) | relative viability ([4]; first compound 0.8 µM) | relative viability ([4]; first compound 2.53 µM) | relative viability ([4]; first compound 8 µM)
1 | NCI-H2170 | 0.238 | 0.281 | 0.264 | 0.266 | 0.267 | 0.571 | 0.677 | 0.766 | 0.68 | 0.632 | 1.09 | 1.14 | 1.19 | 1.02 | 1.19 | 0.803 | 0.752 | 0.692 | 0.594 | 0.674
2 | NCI-H2228 | 0.313 | 0.199 | 0.381 | 0.28 | 0.337 | 0.133 | 0.185 | 0.157 | 0.165 | 0.209 | 0.48 | 0.515 |  | 0.385 | 0.581 | 0.472 | 0.761 | 0.547 | 0.429 | 0.448
3 | NCI-H2347 | 0.406 | 0.482 | 0.408 | 0.465 | 0.399 | 0.328 | 1.03 |  | 0.537 | 0.791 | 0.545 | 0.763 | 0.85 | 0.566 | 0.675 | 0.478 | 0.354 | 0.48 | 0.361 | 0.282
4 | NCI-H2405 |  | 1.16 | 1.04 | 0.619 | 0.679 | 0.585 | 0.581 | 0.774 | 0.664 | 0.737 | 0.815 | 0.93 | 0.97 | 0.89 | 0.854 | 0.621 | 0.579 | 0.714 | 0.604 | 0.626
5 | NCI-H3122 | 0.178 | 0.171 | 0.197 | 0.184 | 0.222 | 0.076 | 0.0878 | 0.0846 | 0.0862 | 0.113 | 0.225 | 0.213 | 0.241 | 0.255 | 0.224 | 0.952 | 0.64 | 0.969 | 0.955 | 0.845
6 | PC-3 [JPC-3] | 1.12 | 1.08 |  | 0.897 | 0.705 | 0.686 | 0.68 | 0.73 | 0.663 | 0.74 | 0.861 | 0.893 | 0.951 | 0.876 | 0.901 | 0.747 | 0.639 | 0.627 | 0.517 | 0.571
7 | PC-14 | 0.167 | 0.154 | 0.164 | 0.14 | 0.157 | 0.373 | 0.18 | 0.202 | 0.289 | 0.502 | 0.889 | 0.912 | 0.896 | 0.769 | 0.894 | 0.805 | 0.956 | 0.596 | 0.748 | 0.602
8 | RERF-LC-KJ | 0.491 | 0.447 | 0.504 | 0.426 | 0.455 | 1.11 | 1.15 | 0.979 | 0.808 | 0.864 | 0.802 | 0.739 | 0.718 | 0.424 | 0.74 | 0.554 | 0.592 | 0.533 | 0.51 | 0.497
9 | SK-LU-1 | 0.853 | 0.956 | 0.97 | 0.892 | 0.905 | 0.204 | 0.204 | 0.221 | 0.204 | 0.244 | 0.787 | 0.772 | 0.884 | 0.817 | 0.824 | 0.326 | 0.395 | 0.298 | 0.303 | 0.246
10 | SK-MES-1 | 0.532 | 0.721 | 0.805 | 0.662 | 0.708 | 0.83 | 0.889 | 0.95 | 0.747 | 0.744 | 0.884 | 0.893 | 0.925 | 0.784 | 0.932 | 0.589 | 0.585 | 0.6 | 0.496 | 0.37
11 | SW 1573 | 0.728 | 0.817 | 0.668 | 0.725 | 0.743 | 0.266 | 0.255 | 0.51 | 0.157 | 0.153 | 0.892 | 0.849 | 0.866 | 0.706 | 0.815 | 0.71 | 0.636 | 0.553 | 0.593 | 0.518
12 | UMC-11 | 0.907 | 0.697 | 0.81 | 0.791 | 0.855 | 1.1 | 1.14 | 1.08 | 1.1 | 0.994 | 0.725 | 0.742 | 0.673 | 0.626 | 0.598 | 0.574 | 0.437 | 0.479 | 0.464 | 0.312
